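Cultured in 96-well plates, cells were exposed to test compound for 48 hours across five concentrations. TGI: concentration producing complete growth inhibition.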
Tests used:
Assay in all cases: NCI tumour cell line growth inhibition, 48 h
HOP-62 NSCLC = system: HOP-62 NSCLC
MCF7 breast = system: MCF7 breast
BT-549 breast = system: BT-549 breast
LOX IMVI melanoma = system: LOX IMVI melanoma
HL-60(TB) leukemia = system: HL-60(TB) leukemia
RXF 393 renal = system: RXF 393 renal
SF-268 CNS = system: SF-268 CNS
SR leukemia = system: SR leukemia
OVCAR-8 ovarian = system: OVCAR-8 ovarian
NCI-H226 lung = system: NCI-H226 lung
MDA-MB-435 = system: MDA-MB-435
SK-MEL-2 melanoma = system: SK-MEL-2 melanoma
COLO 205 colon = system: COLO 205 colon
CAKI-1 renal = system: CAKI-1 renal
A498 renal = system: A498 renal
HCC-2998 colon = system: HCC-2998 colon
HS 578T breast = system: HS 578T breast
SN12C renal = system: SN12C renal
MOLT-4 leukemia = system: MOLT-4 leukemia
NCI/ADR-RES ovarian = system: NCI/ADR-RES ovarian
EKVX NSCLC = system: EKVX NSCLC
SF-295 CNS = system: SF-295 CNS
T-47D breast = system: T-47D breast
TK-10 renal = system: TK-10 renal
A549 NSCLC = system: A549 NSCLC
NCI-H23 lung = system: NCI-H23 lung
HOP-92 NSCLC = system: HOP-92 NSCLC
HCT-15 colon = system: HCT-15 colon
OVCAR-4 ovarian = system: OVCAR-4 ovarian
UACC-62 melanoma = system: UACC-62 melanoma
NCI-H460 lung = system: NCI-H460 lung
SF-539 CNS = system: SF-539 CNS
HCT-116 colon = system: HCT-116 colon
UO-31 renal = system: UO-31 renal
SNB-19 CNS = system: SNB-19 CNS
M14 melanoma = system: M14 melanoma
IGROV1 ovarian = system: IGROV1 ovarian
UACC-257 melanoma = system: UACC-257 melanoma
SK-MEL-5 melanoma = system: SK-MEL-5 melanoma
MDA-N = system: MDA-N
SK-MEL-28 melanoma = system: SK-MEL-28 melanoma
786-0 renal = system: 786-0 renal
OVCAR-5 ovarian = system: OVCAR-5 ovarian
OVCAR-3 ovarian = system: OVCAR-3 ovarian
SK-OV-3 ovarian = system: SK-OV-3 ovarian
RPMI-8226 leukemia = system: RPMI-8226 leukemia
SNB-75 CNS = system: SNB-75 CNS
ACHN renal = system: ACHN renal
K-562 leukemia = system: K-562 leukemia
MALME-3M melanoma = system: MALME-3M melanoma
U251 CNS = system: U251 CNS
PC-3 prostate = system: PC-3 prostate
KM12 colon = system: KM12 colon
MDA-MB-231 breast = system: MDA-MB-231 breast
HT29 colon = system: HT29 colon
DU-145 prostate = system: DU-145 prostate
SW-620 colon = system: SW-620 colon
CCRF-CEM leukemia = system: CCRF-CEM leukemia

Measured: TGI

CCOC(=O)N1CCC2(CC1)CC(=O)N(Nc1ccccc1)C2=O
> 100 µM: all assays above

From PubChem BioAssay (NCI)
